Experimental data reported in paper PMC4536076, “Chemical Library Screening and Structure-Function Relationship Studies Identify Bisacodyl as a Potent and Selective Cytotoxic Agent Towards Quiescent Human Glioblastoma Tumor Stem-Like Cells” (PLoS ONE, 2015).
Where a name gives a salt, the structure may show the parent alone. Read-outs that look alike come from different tables or passages of the source.

How the values were obtained:
[1] = tested on: quiescent TG1 GSCs; assay: ATP-Glo dose-response, quiescent TG1 GSCs; type: cell-based, human; conditions: for EC50 / Quiescent TG1 GSCs EC50: SAR study, ATP-Glo cell survival assay, 24 h, triplicate; for EC50: read-out: Quiescent TG1 GSCs EC50
Protocol: (§1) The EC50 value was determined for each compound by fitting the data points according to the following equation: y=Smax+Smin*(x*1/EC50)^n/1+(x*1/EC50)^n where y represents the expected response, x is the chemical compound concentration, S max and S min are the maximum and minimum responses recorded, respectively and n is the Hill coefficient. Curve fitting was performed using Microsoft Excel Solver component.
(§2) Proliferating or quiescent TG1 cells were seeded in 50 μL of their respective media (30 000 and 40 000 viable cells/well, respectively) into 96-well opaque bottom plates (Greiner, Courtaboeuf, France). Compound treatment was performed by adding 50 μL of compound solutions (in the presence of 2% DMSO in culture medium). […] All compounds were tested in triplicate in each experiment. Independent experiments were performed at least twice for almost all of the compounds.

[2] = tested on: proliferating TG1 GSCs; assay: ATP-Glo dose-response, proliferating TG1 GSCs; type: cell-based, human; conditions: SAR study, ATP-Glo cell survival assay, 24 h, triplicate; for EC50: read-out: Proliferating TG1 GSCs EC50
Protocol: as §1, §2

[3] = tested on: quiescent TG1 GSCs; conditions: 50 μM
Protocol: (§3) Proliferating or quiescent TG1 GSCs were seeded (30 000 and 40 000 viable cells/well, respectively) into 96-well opaque bottom plates (Greiner) with the Biomek FX robot (Beckman Coulter). Each compound from the Prestwick Library was then added (final concentration: 50 μM; 1% DMSO). Each molecule was tested once. Negative control wells (12/96 per assay plate) contained cells treated with 1% DMSO (final concentration) and positive control wells (4/96 per assay plate) contained cells treated with the fungal toxin ophiobolin A (Sigma Aldrich) at 50 μM with 1% DMSO. […] Luminescence in each well was measured with the Victor3 plate reader (PerkinElmer).
(§4) Relative ATP levels in each well were determined by calculating the percentage of luminescent signal in the well with respect to the average signal measured in negative control wells.
(§5) Primary screen hits were further tested in duplicate, at two concentrations (50 and 5 μM) on proliferating and quiescent TG1 GSCs. Cell plating and treatment with compounds were as for the primary screen. Hit selection/confirmation criteria for quiescent cells were as described above.

[4] = tested on: proliferating TG1 GSCs; conditions: 50 μM; for Activity on proliferating TG1 GSCs (hit compounds reducing ATP levels): primary screen, 24 h
Protocol: as §3, §4, §5

Molecule	Activity on quiescent TG1 GSCs (hit compounds reducing ATP levels) ([3]; primary screen, 24 h)	Activity on proliferating TG1 GSCs (hit compounds reducing ATP levels) [4]	also measured
4-hydroxyphenyl-4-phenyl-(pyridin-2-yl)-methane [Compound 7]			EC50 [1]: 17.1 ± 6.3 µM; EC50 [2]: > 100 µM
4-hydroxyphenyl-4-trifluoromethylphenyl-2-pyrimidyl-methane [Compound 11]			EC50 [1]: 12.4 ± 6.9 µM; EC50 [2]: > 100 µM
Clc1ccc(CCC(Cn2ccnc2)Sc2c(Cl)cccc2Cl)cc1 (stereo not drawn) [Butoconazole nitrate]	yes	yes	
CC[C@H]1CN2CCc3cc(OC)c(OC)cc3[C@@H]2C[C@@H]1C[C@H]1NCCc2cc(O)c(OC)cc21.Cl.Cl.O.O.O.O.O.O.O [Cephaeline dihydrochloride heptahydrate]	yes	yes	
CCN(CC)CCOc1ccc(C(=C(Cl)c2ccccc2)c2ccccc2)cc1.O=C(O)CC(O)(CC(=O)O)C(=O)O [Clomiphene citrate (Z, E)]	yes	yes	
Clc1ccccc1C(c1ccccc1)(c1ccccc1)n1ccnc1 [Clotrimazol]	yes	yes	
Oc1ccc(C(c2ccc(O)cc2)c2ccccn2)cc1 [Compound 2, 4,4'-dihydroxydiphenyl(pyridine-2-yl)methane]			EC50 ([1]; Homo sapiens): 1 ± 0.5 µM; EC50 ([2]; Homo sapiens): > 100 µM
CC(=O)Oc1ccc(C(c2ccc(O)cc2)c2ccccn2)cc1 (stereo not drawn) [Compound 3, 4-((4-hydroxyphenyl)(pyridin-2-yl)methyl)phenyl acetate]			EC50 ([1]; Homo sapiens): 1 ± 0.5 µM; EC50 ([2]; Homo sapiens): > 100 µM
COc1ccc(C(c2ccc(OC)cc2)c2ccccn2)cc1 [Compound 4, 4,4'-dimethoxydiphenyl(pyridin-2-yl)methane]			Quiescent TG1 GSCs EC50 [1]: No activity; Proliferating TG1 GSCs EC50 [2]: No activity
COc1ccc(C(c2ccc(O)cc2)c2ccccn2)cc1 (stereo not drawn) [Compound 5, 4-hydroxyphenyl-4-methoxyphenyl-(pyridin-2-yl)-methane]			EC50 ([1]; Homo sapiens): 8 ± 6 µM; fold increase in EC50 (activity decrease) compared to DDPM (compound 2) ([1]; quiescent TG1 GSCs): 8 fold; EC50 ([2]; Homo sapiens): > 100 µM
Oc1ccc(Cc2ccccn2)cc1 [Compound 8, 2-(4-Hydroxybenzyl)pyridine]			Quiescent TG1 GSCs EC50 [1]: No activity; Proliferating TG1 GSCs EC50 [2]: No activity
Oc1ccc(C(c2ccccn2)c2ccccc2O)cc1 (stereo not drawn) [Compound 9, (2-hydroxyphenyl)-(4-hydroxyphenyl)-(pyridin-2-yl)-methane]			EC50 ([1]; Homo sapiens): 57.6 ± 0.7 µM; Proliferating TG1 GSCs EC50 [2]: No activity
Oc1ccc(C(c2ccc(Cl)cc2)c2ccccn2)cc1 (stereo not drawn) [Compound 10, 4-hydroxyphenyl-4-chlorophenyl-pyridin-2-yl-methane]			EC50 ([1]; Homo sapiens): 4 ± 1.4 µM; EC50 ([2]; Homo sapiens): > 100 µM
CC/C(=C(/CC)c1ccc(O)cc1)c1ccc(O)cc1 [Diethylstilbestrol]	yes	yes	
Cl.Cl.Fc1ccc(C(OCCN2CCN(CCCc3ccccc3)CC2)c2ccc(F)cc2)cc1 [GBR 12909 dihydrochloride]	yes	yes	
Cc1cc2c(C(C)C)c(O)c(O)c(C=O)c2c(O)c1-c1c(C)cc2c(C(C)C)c(O)c(O)c(C=O)c2c1O [Gossypol]	yes	yes	
Clc1ccc(C(Cn2ccnc2)OCc2c(Cl)cccc2Cl)c(Cl)c1 (stereo not drawn) [Isoconazole]	yes	yes	
CC(=O)O[C@H]1C[C@H](O[C@H]2[C@@H](O)C[C@H](O[C@H]3[C@@H](O)C[C@H](O[C@H]4CC[C@@]5(C)[C@H](CC[C@@H]6[C@@H]5C[C@@H](O)[C@]5(C)[C@@H](C7=CC(=O)OC7)CC[C@]65O)C4)O[C@@H]3C)O[C@@H]2C)O[C@H](C)[C@H]1O[C@@H]1O[C@H](CO)[C@@H](O)[C@H](O)[C@H]1O [Lanatoside C]	yes	yes	
CC[C@@H](C(=O)[C@@H](C)[C@@H](O)[C@H](C)CCc1ccc(C)c(O)c1C(=O)[O-])[C@H]1O[C@](CC)([C@H]2CC[C@](O)(CC)[C@H](C)O2)C[C@@H]1C.[Na+] [Lasalocid sodium salt]	yes	yes	

Molecule	Activity on quiescent TG1 GSCs (hit compounds reducing ATP levels) ([3]; primary screen, 24 h)	Activity on proliferating TG1 GSCs (hit compounds reducing ATP levels) [4]	also measured
O[C@H]1[C@H]2c3cc4c(cc3CN3CCC(=C[C@@H]1O)[C@H]23)OCO4 [Lycorine hydrochloride]	yes	yes	
Cc1cccc(CN2CCN(C(c3ccccc3)c3ccc(Cl)cc3)CC2)c1.Cl.Cl (stereo not drawn) [Meclozine dihydrochloride]	yes	yes	
OC(c1cc(C(F)(F)F)nc2c(C(F)(F)F)cccc12)C1CCCCN1 (stereo not drawn) [Mefloquine hydrochloride]	yes	yes	
CC1=CC(=O)c2ccccc2C1=O [Menadione]	yes	yes	
Clc1ccc(COC(Cn2ccnc2)c2ccc(Cl)cc2Cl)c(Cl)c1 (stereo not drawn) [Miconazole]	yes	yes	
CCOC(=O)C1=C(C)NC(C)=C(C(=O)OC)C1c1cccc([N+](=O)[O-])c1 (stereo not drawn) [Nitrendipine]		yes	Activity on quiescent TG1 CSCs (hit compounds increasing ATP levels) ([3]; primary screen, 24 h): yes
O=C(N/N=C/c1ccc([N+](=O)[O-])o1)c1ccc(O)cc1 [Nitrofuroxazide]	yes	yes	
CC(C)=C[C@H]1C[C@H](C)[C@]2(CC[C@]3(C)C[C@H]4[C@H](C(=O)C[C@@]4(C)O)/C(C=O)=C\C[C@H]32)O1 [Ophiobolin A]			cytotoxicity (positive control) ([3]; 1% DMSO, quiescent GSCs): cytotoxic; cytotoxicity (positive control) ([4]; 1% DMSO, proliferating GSCs): cytotoxic
COc1cc2nc(N3CCN(C(=O)c4ccco4)CC3)nc(N)c2cc1OC [Prazosin hydrochloride]	yes	yes	
COc1cc(NC(C)CCCN)c2ncccc2c1 (stereo not drawn) [Primaquine diphosphate]	yes	yes	
C[n+]1cc2c3c(ccc2c2ccc4cc5c(cc4c21)OCO5)OCO3 [Sanguinarine]	yes	yes	
Clc1ccc(C(Cn2ccnc2)OCc2csc3c(Cl)cccc23)c(Cl)c1 (stereo not drawn) [Sertaconazole nitrate]	yes	yes	
CN[C@H]1CC[C@@H](c2ccc(Cl)c(Cl)c2)c2ccccc21 [Sertraline]	yes	yes	
CC/C(=C(\c1ccccc1)c1ccc(OCCN(C)C)cc1)c1ccccc1 [Tamoxifen citrate]	yes	yes	
CCCCCCCCCCCCCCCC[N+](C)(C)CCN(Cc1ccc(OC)cc1)c1ncccn1 [Thonzonium bromide]	yes	yes	
C[C@H]1CC[C@]2(NC1)O[C@H]1C[C@H]3[C@@H]4CC[C@H]5C[C@@H](O[C@@H]6O[C@H](CO)[C@H](O[C@@H]7O[C@H](CO)[C@@H](O)[C@H](O[C@@H]8OC[C@@H](O)[C@H](O)[C@H]8O)[C@H]7O[C@@H]7O[C@H](CO)[C@@H](O)[C@H](O)[C@H]7O)[C@H](O)[C@H]6O)CC[C@]5(C)[C@H]4CC[C@]3(C)[C@H]1[C@@H]2C [Tomatine]	yes	yes	
CCOC1O[C@H]([C@@H](COCc2ccccc2)OCc2ccccc2)[C@H](OCc2ccccc2)[C@H]1O (stereo partly drawn) [Tribenoside]	yes	yes	
Avermectin B1	yes	yes	
